These results are taken from patent publication US20230149515A1, “INHIBITION OF SARS-COV-2 VIRAL ENTRY THROUGH ORAL ADMINISTRATION OF L[…] USES THEREOF” (priority 2020, published 2023).

This test relates to SARS-CoV-2. It is filed as cell-based. The settings on record: positive control; Huh7 cells; FIG. 1 (50 nanomolar Remdesivir).

Turning to `CCC(CC)COC(=O)[C@H](C)N[P@](=O)(OC[C@H]1O[C@@](C#N)(c2ccc3c(N)ncnn23)[C@H](O)[C@@H]1O)Oc1ccccc1` [Remdesivir, reference compound], the “efficacy in SARS-CoV-2 infectivity assay” value was determined as 100%.
